{"source": "PubChem BioAssay AID1259408", "about": "(Genetic Toxicology Data Bank (GENE-TOX), 2018)", "system": "GENE-TOX genotoxicity assays, various organisms and cells", "assay": "GENE-TOX mutagenicity studies", "settings": "for call: Assay Type: In vivo carcinogenicity studies", "key": {"[1]": {"settings": "Species/Cell Type: Nonhuman, Assay Type: Sister-chromatid exchange (SCE) in vitro, Assay Code: SC2+D, Dose Response: With dose response, Evaluation Type: Evaluation B (Post-1980)"}, "[2]": {"settings": "Species/Cell Type: Mouse embryo (AKR/ME) cells, Assay Type: Cell transformation, Assay Code: CTK+, Evaluation Type: Evaluation A (Pre-1980)"}, "[3]": {"settings": "Species/Cell Type: Salmonella typhimurium (one or more of the five standard strains: TA98, TA100, TA1535, TA1537, and TA1538), Assay Type: Histidine reverse gene mutation, Ames assay, Assay Code: SALT, Evaluation Type: Evaluation A (Pre-1980)"}}, "note": "Activity calls are given as the source filed them. The rule behind the calls is not given here."}
{"smiles": "C/C=C1/C[C@@H](C)[C@@](C)(O)C(=O)OC/C2=C/CN(C)CC[C@@H](OC1=O)C2=O", "values": [{"measurement": "mutagenic call", "setting": "[1]", "value": "active; positive"}]}
{"smiles": "Nc1ccc(-c2ccc(F)cc2)cc1", "values": [{"measurement": "mutagenic call", "setting": "[2]", "value": "active; positive"}]}
{"smiles": "COc1cccc2oc3c4c(cc(OC)c3c(=O)c12)O[C@H]1OC=C[C@@H]41", "values": [{"measurement": "mutagenic call", "setting": "[3]", "value": "no conclusion"}]}
{"smiles": "O[C@H]1C=Cc2c(cc3ccc4cccc5ccc2c3c45)[C@@H]1O", "values": [{"measurement": "mutagenic call", "setting": "Species/Cell Type: Chinese hamster lung (V79) cells, Assay Type: Forward gene mutation at the HPRT or ouabain locus, Assay Code: V79+*, Activation: With metabolic activation, Evaluation Type: Evaluation A (Pre-1980)", "value": "active; positive"}, {"measurement": "call", "setting": "Species/Cell Type: Nonhuman, Assay Code: CCG+, Evaluation Type: Evaluation A (Pre-1980)", "value": "active; positive"}, {"measurement": "call", "setting": "Species/Cell Type: Nonhuman, Assay Code: CCG+L, Evaluation Type: Evaluation A (Pre-1980)", "value": "active; positive"}, {"measurement": "mutagenic call", "setting": "Species/Cell Type: Nonhuman, Assay Type: Sister-chromatid exchange (SCE) in vitro, Assay Code: SC2+D, Dose Response: With dose response, Evaluation Type: Evaluation A (Pre-1980)", "value": "active; positive"}, {"measurement": "mutagenic call", "setting": "[1]", "value": "active; positive"}, {"measurement": "mutagenic call", "setting": "Species/Cell Type: Salmonella typhimurium (one or more of the five standard strains: TA98, TA100, TA1535, TA1537, and TA1538), Assay Type: Histidine reverse gene mutation, Ames assay, Assay Code: SAL+*, Activation: With metabolic activation, Evaluation Type: Evaluation A (Pre-1980)", "value": "active; positive"}]}
{"smiles": "N#CCC(=O)N/N=C/c1c[n+]([O-])c2ccccc2[n+]1[O-]", "values": [{"measurement": "mutagenic call", "setting": "Species/Cell Type: Mammalian polychromatic erythrocytes, Assay Type: Micronucleus test, chromosome aberrations, Assay Code: MNT+, Evaluation Type: Evaluation B (Post-1980)", "value": "active; positive"}]}
{"smiles": "CN(C)c1ccc(N=Nc2ccc3ncccc3c2)cc1", "values": [{"measurement": "mutagenic call", "setting": "Species/Cell Type: Fischer rat embryo (RLV/1706) cells, Assay Type: Cell transformation, viral enhanced, Assay Code: CTR+, Evaluation Type: Evaluation A (Pre-1980)", "value": "active; positive"}, {"measurement": "mutagenic call", "setting": "[2]", "value": "active; positive"}]}
{"smiles": "Nc1nc2n[nH]nc2c(=O)[nH]1", "values": [{"measurement": "mutagenic call", "setting": "Species/Cell Type: Neurospora crassa, Assay Type: Aneuploidy, chromosome aberrations, Assay Code: NEN-, Evaluation Type: Evaluation A (Pre-1980)", "value": "inactive; negative"}]}
{"smiles": "CCc1nc(N)nc(N)c1-c1ccc(Cl)cc1", "values": [{"measurement": "mutagenic call", "setting": "[3]", "value": "no conclusion"}]}
